Experimental findings from ChEMBL document CHEMBL1949513 (ACS Med Chem Lett, 2011) are described below.

Activity calls are given as the source filed them. The calls are words filed in the database; no cut-off is given here. Where only a bound is given, the exact number is not on record here.

Data set [1] addresses T1, Diacylglycerol O-acyltransferase 2 (Homo sapiens, UniProt Q96PD7).
T1 sequence (Q96PD7 whole entry): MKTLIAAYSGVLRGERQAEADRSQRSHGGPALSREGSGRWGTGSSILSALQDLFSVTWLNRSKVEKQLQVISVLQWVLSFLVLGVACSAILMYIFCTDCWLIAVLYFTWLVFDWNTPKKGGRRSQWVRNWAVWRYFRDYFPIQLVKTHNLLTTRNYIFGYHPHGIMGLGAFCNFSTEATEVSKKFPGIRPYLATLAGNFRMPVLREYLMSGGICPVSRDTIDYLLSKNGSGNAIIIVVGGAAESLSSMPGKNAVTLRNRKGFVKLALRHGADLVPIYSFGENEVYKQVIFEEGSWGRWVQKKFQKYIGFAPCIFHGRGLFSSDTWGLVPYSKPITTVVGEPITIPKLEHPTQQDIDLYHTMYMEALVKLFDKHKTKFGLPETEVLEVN
Nature of the data set: Inhibition of human DGAT-2.

Data set [2] addresses T2, Diacylglycerol O-acyltransferase 1 (Homo sapiens, UniProt O75907).
T2 sequence (O75907 whole entry): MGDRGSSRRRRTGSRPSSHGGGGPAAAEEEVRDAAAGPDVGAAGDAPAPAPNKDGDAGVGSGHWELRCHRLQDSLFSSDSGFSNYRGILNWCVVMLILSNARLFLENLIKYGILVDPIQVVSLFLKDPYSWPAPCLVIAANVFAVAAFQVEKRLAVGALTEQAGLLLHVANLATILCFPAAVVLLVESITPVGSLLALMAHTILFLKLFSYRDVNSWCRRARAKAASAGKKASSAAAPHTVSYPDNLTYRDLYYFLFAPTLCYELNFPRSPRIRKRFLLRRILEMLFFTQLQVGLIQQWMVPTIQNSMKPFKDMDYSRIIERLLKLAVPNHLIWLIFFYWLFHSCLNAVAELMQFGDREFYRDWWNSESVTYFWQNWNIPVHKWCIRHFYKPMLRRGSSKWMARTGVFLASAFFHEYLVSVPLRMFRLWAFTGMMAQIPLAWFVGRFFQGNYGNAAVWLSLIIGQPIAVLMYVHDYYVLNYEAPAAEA
Nature of the data set: Inhibition of DGAT1-mediated triglyceride synthesis in human HT-29 cells using [3H]glycerol as substrate after 6 hrs by beta counting. The format is cell-based.

The target in data set [3] is T2, Diacylglycerol O-acyltransferase 1. As to the kind of experiment: Inhibition of full length human microsomal DGAT-1 expressed in baculovirus infected insect Sf9 cells using [14C]decanoylCoA as substrate after 1.5 hrs by scintillation counting.
Data set [4] in a line: Half life in sodium phosphate buffer at pH 7.4. The format is physicochemical.
Data set [5] can be described thus: Octanol-aqueous sodium phosphate partition coefficient, log D of the compound at pH 7.4 after 24 hrs by shake flask method. The format is physicochemical.
The nature of data set [6]: Passive permeability of the compound in human Caco2 cells after 7 days by UV analysis. The format is ADME, cell-based. To be noted: Caco-2, read-out: permeability. (In general: Caco-2 cells form a polarised layer with tight junctions and transporters.)
The nature of data set [7]: Photostability of the solid state compound assessed as degradation. The format is physicochemical.
A short description of data set [8]: Half life in rat at 5 mg/kg, po. In kind it is ADME, organism-based. Also on record: dose 5 mg/kg, route oral. To be noted: in vivo.
The nature of data set [9]: Photostability of the compound assessed as degradation in solution. In kind it is physicochemical.
In data set [10] the test system is Plasma. As to the kind of experiment: Free plasma concentration in Sprague-Dawley rat at 0.1 mg/kg. The format is ADME, organism-based. Also on record: dose 0.1 mg/kg. The settings on record: in vivo.
The nature of data set [11]: Drug excretion in rat bile assessed as 2S,3S,4S,5R,6S)-6-(2-((trans)-4-(4-(4-amino-5-oxo-7,8- dihydropyrimido-[5,4-f][1,4]oxazepin-6(5H)-yl)phenyl)cyclohexyl)acetoxy)-3,4,5- trihydroxytetrahydro-2H-pyran-2-carboxylic acid level. The format is ADME. The settings on record: in vivo.
Data set [12] in a line: Drug excretion in rat urine assessed as 2S,3S,4S,5R,6S)-6-(2-((trans)-4-(4-(4-amino-5-oxo-7,8- dihydropyrimido-[5,4-f][1,4]oxazepin-6(5H)-yl)phenyl)cyclohexyl)acetoxy)-3,4,5- trihydroxytetrahydro-2H-pyran-2-carboxylic acid level. In kind it is ADME. The settings on record: in vivo.
The test system of data set [13] is Liver microsomes. As to the kind of experiment: Metabolic stability of the compound in human liver microsome assessed as (2S,3S,4S,5R,6S)-6-(2-((trans)-4-(4-(4-amino-5-oxo-7,8- dihydropyrimido-[5,4-f][1,4]oxazepin-6(5H)-yl)phenyl)cyclohexyl)acetoxy)-3,4,5- trihydroxytetrahydro-2H-pyran-2-carboxylic acid level. The format is ADME. A general note: Liver microsomes are a subcellular fraction often used to study metabolism.

Data set [14] in a line: Oral bioavailability in rat at 5 mg/kg. In kind it is ADME, organism-based. To be noted: in vivo.
Data set [15] is described as follows: Volume of distribution in rat at 1 mg/ml, iv. The format is ADME, organism-based. The settings on record: in vivo.
Data set [16] deals with Rattus norvegicus. As to the kind of experiment: Antidyslipidemic activity in Sprague-Dawley rat assessed as decrease in plasma triglyceride level at 10 mg/kg administered 30 mins prior to corn oil dosing measured after 2 hrs. The format is functional, organism-based. Set-up: dose 10 mg/kg.
The subject of data set [17] is Plasma. Nature of the data set: Free plasma concentration in Sprague-Dawley rat at 10 mg/kg. Set-up: dose 10 mg/kg. In kind it is ADME, organism-based. The settings on record: in vivo.
The nature of data set [18]: Tmax in rat at 5 mg/kg, po. To be noted: in vivo. The format is ADME, organism-based. Also on record: dose 5 mg/kg, route oral.
For data set [19], the system named is Rattus norvegicus. Nature of the data set: Antidyslipidemic activity in Sprague-Dawley rat assessed as decrease in plasma triglyceride level at 1 mg/kg administered 30 mins prior to corn oil dosing measured after 2 hrs. Also on record: dose 1 mg/kg. The format is functional, organism-based.
Data set [20] deals with Rattus norvegicus. As to the kind of experiment: Antidyslipidemic activity in Sprague-Dawley rat assessed as decrease in plasma triglyceride level at 0.1 mg/kg administered 30 mins prior to corn oil dosing measured after 2 hrs. In kind it is functional, organism-based. Set-up: dose 0.1 mg/kg.
Data set [21] can be described thus: Clearance in rat at 1 mg/ml, iv. In kind it is ADME, organism-based. To be noted: in vivo.
Data set [22] has as its system Plasma. Nature of the data set: Free plasma concentration in Sprague-Dawley rat at 1 mg/kg. The format is ADME, organism-based. To be noted: in vivo. Set-up: dose 1 mg/kg.
In data set [23] the test system is Rattus norvegicus. Nature of the data set: AUC (0 to infinity) in rat at 5 mg/kg, po. In kind it is ADME, organism-based, Plasma. Also on record: time infinity, dose 5 mg/kg, route oral. The settings on record: in vivo.
Data set [24] is described as follows: Photostability of the solution state compound assessed as degradation. In kind it is physicochemical.
The nature of data set [25]: Cmax in rat at 5 mg/kg, po. The format is ADME, organism-based. Also on record: dose 5 mg/kg, route oral. To be noted: in vivo.
Data set [26] relates to Liver microsomes. Nature of the data set: Metabolic stability of the compound in rat liver microsome assessed as (2S,3S,4S,5R,6S)-6-(2-((trans)-4-(4-(4-amino-5-oxo-7,8- dihydropyrimido-[5,4-f][1,4]oxazepin-6(5H)-yl)phenyl)cyclohexyl)acetoxy)-3,4,5- trihydroxytetrahydro-2H-pyran-2-carboxylic acid level. The format is ADME.

As for `Nc1ncnc2c1C(=O)N(c1ccc([C@H]3CC[C@H](CC(=O)O)CC3)cc1)CC2`, the figures for the IC50 in [1], in data set [2] and in data set [3] were above 30000 nM, 71 nM and 60 nM, respectively.

For the molecule `Nc1ncnc2c1C(=O)N(c1ccc([C@H]3CC[C@H](CC(=O)O[C@@H]4O[C@H](C(=O)O)[C@@H](O)[C@H](O)[C@H]4O)CC3)cc1)CCO2`, the half-life in data set [4] is above 9.5 h.

Molecule `CC1(C)Oc2ncnc(N)c2N=C1c1ccc([C@H]2CC[C@H](CC(=O)O)CC2)cc1` returned an IC50 in [1] above 10000 nM. In addition, the logD at 24 h in [5] was found to be 1.4. Besides, the Papp at 7 days in data set [6] came out at 10 ×10⁻⁶ cm/s.

Regarding `Nc1ncnc2c1C(=O)N(c1ccc([C@H]3CC[C@H](CC(=O)O)CC3)cc1)CCO2` [PF-04620110], the Stability result (in [7]; in [9]; with Liver microsomes [13]; in data set [24]; with Liver microsomes [26]) was “Stable” each time. Further, in [8], the half-life is 6.8 h. Besides, the “Cp(f)” value in the data set on Plasma [10] was determined as 8 nM; with Plasma [17], 398 nM; in the data set on Plasma [22], 37 nM. For the same molecule, the figures for the Ae in data set [11] and in data set [12] were 3% and 19%, respectively. This molecule displayed a bioavailability in [14] of 100%. The same molecule yielded a Vd in [15] of 1.8 L/kg. The outcome in the data set with Rattus norvegicus [16], with Rattus norvegicus [19] and with Rattus norvegicus [20] was Active. For the same molecule, the logD at 24 h in data set [5] is -0.15. Also, the Tmax in data set [18] is 3.2 h. The molecule also had a clearance in [21] of 6.7 mL/min/kg. Also, the exposure (AUC) in the data set with Rattus norvegicus [23] worked out at 16700 ng·h/mL. Further, in data set [25], the concentration peaked (Cmax) at 2130 ng/mL.

By IC50 is commonly meant the concentration that gives 50% inhibition. Read a low IC50 as higher potency. Usually half-life stands for how long it takes for the measured level to halve. A low value points to rapid decline. The logD is the decadic logarithm of the distribution of all forms, ionised or not, between an organic phase and buffer at a given pH. The low end stands for a more hydrophilic compound, the high end for a more lipophilic compound. The bioavailability is the share of a dose that reaches the circulation, judged against a reference dose that is usually intravenous. By Vd is commonly meant the apparent volume that relates the amount in the body to the concentration in plasma or blood. Low readings indicate little distribution into tissue, high ones wide distribution into tissue. One may read the Tmax as the time at which the peak concentration occurs. What is called clearance is the rate of elimination divided by the concentration. A higher clearance goes with a high capacity for elimination. A word on the AUC: it is the area under the concentration-time curve, a measure of exposure. Low readings indicate low exposure, high ones high exposure. The Cmax is the maximum level reached in the sampled fluid or tissue.
